Reference: paper PMC5062470, “The mGluR2 positive allosteric modulator, SAR218645, improves memory and attention deficits in translational models of cognitive symptoms associated with schizophrenia” (Scientific Reports, 2016)

Tests used:
CD-1 mice [1] = assay: LY404039-induced turning behavior; type: in vivo
Procedure: Under light restraint, a single unilateral intracortical infusion of the selective mGluR2/3 receptor agonist, LY404039, was performed in CD-1 mice (25–30 g at arrival). An injection point was assessed using the eyes and back of the skull as landmarks. Immediately following the application of LY404039, the observation period began. The number of contralateral turns elicited in a 5 min period was recorded. SAR218645 was administered orally 60 min before infusion of LY404039 and the potentiation of the turning behavior was noted. The selective mGluR2/3 receptor antagonist, LY341495, was administered ip 90 min prior to infusion of LY404039. Statistical analysis was performed using Kruskal Wallis test followed by a Wilcoxon two-tailed comparison. Ten animals per group were used.

Sprague-Dawley rats = assay: DOI-induced glutamate release in the medial prefrontal cortex (microdialysis); type: in vivo
Procedure: Male Sprague-Dawley rats (320–350 g) were housed two per cage. Two days before the dialysis assay, they were anesthetized with chloral hydrate (400 mg/kg, ip, 10 ml/kg of body weight) and placed in a stereotaxic apparatus (David Kopf Instruments, Tujunga, CA, USA). Anesthesia was maintained throughout surgery as necessary with supplementary doses of chloral hydrate. Body temperature was monitored by a rectal probe and adjusted (37 ± 1 °C) by a homeothermic blanket. The skull and the dura were opened to allow the implantation of a guide cannula in the medial prefrontal cortex (PFC). The coordinates were […] to bregma, […] to the midline and […] the dural surface. A dental cement cap held the cannula in place, and three screws anchored the cap to the skull. The rats were individually housed post-surgery and allowed two days of recovery before the start of the experiment. On the day of the experiment, animals were placed in a microdialysis bowl, the cannula cap was removed, and a […] (CMA12, Carnegie Medicine AB, Stockholm, Sweden) was inserted into the guide cannula. The probe was perfused at a constant flow rate of 1 μl/min using a microinjection pump (CMA100; Carnegie Medicine AB) with a gassed Ringer’s solution containing (in mM): NaCl (145), KCl (2.7), CaCl2 (1.2), MgCl2 (1), Na2HPO4 (2.3), […]; pH 7.4. Microdialysis sampling started 120 min after probe placement into the PFC. The outlet of the probe was connected to an on-line derivatization system allowing direct analysis of dialysate samples collected every 15 min. […] CE experiments were performed on a P/ACE MDQ capillary electrophoresis system (Beckman Coulter, Villepinte, France) coupled to an external Zetalif fluorescence detector (Picometrics S.A., Toulouse, France). […] The emission intensity was measured at a wavelength of 490 nm. […] Dose-effect of SAR218645 was evaluated by comparing the area under the curve during the first 150 min after po injection of the drug or vehicle. […]

CD-1 mice [2] = assay: DOI-induced head-twitch behaviors; type: in vivo
Procedure: Male CD-1 mice weighing 25–30 g at the time of testing were used. Animals were brought into the testing area and allowed at least 30 min to acclimatize. The behavior observation was conducted in a wire test chamber measuring 10 cm^3. SAR218645 or the selective 5-HT2A receptor antagonist, volinanserin, was administered po at various times before administration of DOI. DOI was injected ip at a dose of 1 mg/kg. Five minutes later behavioral observation commenced. A trained (blinded) observer continuously watched the mice for 20 min and noted the number of DOI-induced head twitches during this time. The number of head twitches per group was averaged and SAR218645 or volinanserin plus DOI were compared to DOI alone. Three to eight animals per group were used.

OF1 mice = assay: Pentylenetetrazol (PTZ) seizure threshold test; type: in vivo; details: dose-range 10–30, po
Procedure: The seizure threshold was determined by the infusion of 8 mg/mL of PTZ at a rate of 0.7 mL/min via a flexible plastic catheter into the tail vein of freely moving OF1 mice (22–24 g) using an infusion pump. The convulsant dose for each endpoint was calculated in mg/kg PTZ. SAR218645 (10 and 30 mg/kg, po) and diazepam (3 mg/kg, ip) were administered 60 or 30 min prior to the beginning of PTZ infusion, respectively. One-way ANOVA was used to assess overall effect of treatment, and Dunnett’s post-hoc was used to compare differences between treatment groups. Ten to fifteen animals per group were used.

mice = system: mice; set-up: method as in earlier work; details: wide dose-range; cited from earlier work

Compound: CC1(C)CCc2cc(OC[C@@H]3Cn4ccc(=O)nc4O3)ccc21 [SAR218645, (S)-2-(1,1-dimethyl-indan-5-yloxymethyl)-2,3-dihydro-oxazolo[3,2-a]pyrimidin-7-one]
- effect on LY404039-induced turning behavior (CD-1 mice [1]; 3 and 10 mg/kg po, 60 min before LY404039 infusion, P < 0.01): potentiated significantly
- Minimal active dose (CD-1 mice [1]; dose-range 1–10, po, CD-1 mice): 3 mg/kg
- effect on DOI-induced increase in extracellular glutamate (time-course) (Sprague-Dawley rats; 3 mg/kg po, 30 min before DOI 2.5 mg/kg sc): blocked significantly
- effect on glutamate AUC during 150 min (Sprague-Dawley rats; 30 mg/kg po, P < 0.05): reaching statistical significance
- Minimal active dose (Sprague-Dawley rats; dose-range 0.3–30, po, Sprague-Dawley rats): 3 mg/kg
- Minimal active dose (CD-1 mice [2]; dose-range 1–10, po, CD-1 mice): 3 mg/kg
- effect on DOI-induced head twitches (CD-1 mice [2]; po, DOI 1 mg/kg ip, significant at 3 and 10 mg/kg): dose-dependently inhibited
- Minimal active dose (OF1 mice): >30 mg/kg
- effect on the ability of haloperidol and risperidone to alleviate psychostimulant-induced hyperactivity (mice): did not alter
